Test results as given in patent US8759522B2, “Inhibitors of protein tyrosine kinase activity” (Methylgene Inc., priority 2008, dated 2014).

tested on: CNV progression; test: In vivo choroidal neovascularization (CNV) model; set-up: species or system Brown-Norway rats; settings: 240 h; rat laser-induced CNV, 30 nmol/eye injection on Day 3, CNV area on Day 10 vs vehicle-treated group
From the text: In vivo Choroidal Neovascularization (CNV) Model
This test measures the capacity of compounds to inhibit CNV progression. CNV is the main cause of severe vision loss in patients suffering from age-related macular degeneration (AMD).
Male Brown-Norway rats (Japan Clea Co., Ltd.) were used in these studies.
Rats were anesthetized by intraperitoneal injection of pentobarbital, and the right pupil was dilated with 0.5% tropicamide and 0.5% phenylephrine hydrochloride. The right eye received 6 laser burns between retinal vessels using a slit lamp delivery system of Green laser Photocoagulator (Nidex Inc., Japan), and microscope slide glass with Healon™ (AMO Inc) used as a contact lens. The laser power was 100 or 200 mW for 0.1 second and spot diameter was 100 μm. At the time of laser burn, bubble production was observed, which is an indication of rupture of Bruch's membrane which is important for CNV generation.
Rats were divided into the groups based on their body weight using SAS software (SAS institute Japan, R8.1) after laser irradiation (Day 0). After animals were anesthetized, and the right pupil dilated (as above mentioned), the right eye of the animal received the compound or vehicle by an injection (10 μL/eye) at doses of 30 nmol/eye on Day 3. The compounds were dissolved or suspended in CBS, PBS, or other adequate vehicles before injection.
On Day 10, the animals were anesthetized with ether, and high molecular weight fluorescein isothiocyanate (FITC)-dextran (SIGMA, 2×10^6 MW) was injected via a tail vein (20 mg/rat). About 30 min after FITC-dextran injection, animals were euthanized by ether or carbon dioxide, and the eyes were removed and fixed with 10% formaline neutral buffer solution. After over 1 hour of fixation, RPE-choroid-sclera flat mounts were obtained by removing cornea, lens and retina from the eyeballs. The flat mounts were mounted in 50% glycerol on a microscope slide, and the portion burned by laser was photographed using a fluorescence microscope (Nikon Corporation, excitation filter: 465-495 nm, absorption filter: 515-555 nm). The CNV area was obtained by measurement of hyper-fluorescence area observed on the photograph using Scion image.
The average CNV area of 6 burns was used as an individual value of CNV area, and the average CNV area of compound treated group was compared with that of the vehicle-treated group.

COCCNCc1cnc(-c2cc3nccc(Oc4ccc(NC(=O)NC(C)C)cc4F)c3s2)n1C [Compound 315, 1-(3-Fluoro-4-(2-(5-((2-methoxyethylamino)methyl)-1-methyl-1H-imidazol-2-yl)thieno[3,2-b]pyridin-7-yloxy)phenyl)-3-isopropylurea] and COCCNCc1cnc(-c2cc3nccc(Oc4ccc(NC(=O)Nc5ccc(F)cc5F)cc4F)c3s2)n1C [Compound 351, 1-(2,4-difluorophenyl)-3-(3-fluoro-4-(2-(5-((2-methoxyethylamino)methyl)-1-methyl-1H-imidazol-2-yl)thieno[3,2-b]pyridin-7-yloxy)phenyl)urea] cannot be ordered by inhibition in vivo at 30 nmol/eye: at least 60% for the first, 40 to 60% for the second.

COCCOCCOCCOCCNCc1ccc(-c2cc3nccc(Oc4ccc(NC(=O)NC5CC5)cc4F)c3s2)nc1 [Compound 323, 1-(4-(2-(5-5,8,11,14-Tetraoxa-2-azapentadecylpyridin-2-yl)thieno[3,2-b]pyridin-7-yloxy)-3-fluorophenyl)-3-cyclopropylurea] and COCCOCCNCc1ccc(-c2cc3nccc(Oc4ccc(NC(=O)NC5CC5)cc4F)c3s2)nc1 [Compound 331, 1-Cyclopropyl-3-(3-fluoro-4-(2-(5-((2-(2-methoxyethoxy)ethylamino)methyl)pyridin-2-yl)thieno[3,2-b]pyridin-7-yloxy)phenyl)urea] cannot be ordered by inhibition in vivo at 30 nmol/eye: at least 60% for the first, 40 to 60% for the second.

N[C@@H](CCCCNCc1ccc(-c2cc3nccc(Oc4ccc(NC(=O)NC5CC5)cc4F)c3s2)nc1)C(=O)O [Compound 324, (S)-2-amino-6-((6-(7-(4-(3-cyclopropylureido)-2-fluorophenoxy)thieno[3,2-b]pyridin-2-yl)pyridin-3-yl)methylamino)hexanoic acid] and COCCNCc1ccc(-c2cc3nccc(Oc4ccc(NC(=O)NC5CCC5)cc4F)c3s2)nc1 [Compound 414, 1-cyclobutyl-3-(3-fluoro-4-(2-(5-((2-methoxyethylamino)methyl)pyridin-2-yl)thieno[3,2-b]pyridin-7-yloxy)phenyl)urea] fall in the same range of inhibition in vivo at 30 nmol/eye: 40 to 60% for the first, 40 to 60% for the second.

O=C(Nc1ccc(Oc2ccnc3cc(-c4ccc(CN5CCCC5=O)cn4)sc23)c(F)c1)NC1CC1 [Compound 333, 1-cyclopropyl-3-(3-fluoro-4-(2-(5-((2-oxopyrrolidin-1-yl)methyl)pyridin-2-yl)thieno[3,2-b]pyridin-7-yloxy)phenyl)urea] and COC[C@H](C)N(Cc1ccc(-c2cc3nccc(Oc4ccc(NC(=O)NC5CC5)cc4F)c3s2)nc1)C(C)=O [Compound 335, (S)—N-((6-(7-(4-(3-cyclopropylureido)-2-fluorophenoxy)thieno[3,2-b]pyridin-2-yl)pyridin-3-yl)methyl)-N-(1-methoxypropan-2-yl)acetamide] cannot be ordered by inhibition in vivo at 30 nmol/eye: at least 60% for the first, 40 to 60% for the second.

COCCN(Cc1ccc(-c2cc3nccc(Oc4ccc(NC(=O)NC5CC5)cc4F)c3s2)nc1)C(=O)[C@H](N)C(C)C [Compound 341, (R)-2-amino-N-((6-(7-(4-(3-cyclopropylureido)-2-fluorophenoxy)thieno[3,2-b]pyridin-2-yl)pyridin-3-yl)methyl)-N-(2-methoxyethyl)-3-methylbutanamide] and COCCN(Cc1ccc(-c2cc3nccc(Oc4ccc(NC(=O)Nc5cccc(S(C)(=O)=O)c5)cc4F)c3s2)nc1)C(C)=O [Compound 413, N-((6-(7-(2-fluoro-4-(3-(3-(methylsulfonyl)phenyl)ureido)phenoxy)thieno[3,2-b]pyridin-2-yl)pyridin-3-yl)methyl)-N-(2-methoxyethyl)acetamide] cannot be ordered by inhibition in vivo at 30 nmol/eye: at least 60% for the first, at least 60% for the second.

COCCN(Cc1cnc(-c2cc3nccc(Oc4ccc(NC(=O)NC5CC5)cc4F)c3s2)n1C)S(C)(=O)=O [Compound 349, N-((2-(7-(4-(3-Cyclopropylureido)-2-fluorophenoxy)thieno[3,2-b]pyridin-2-yl)-1-methyl-1H-imidazol-5-yl)methyl)-N-(2-methoxyethyl)methanesulfonamide] and COCCNCc1ccc(-c2cc3nccc(Oc4ccc(NC(=O)Nc5cccc(S(N)(=O)=O)c5)cc4F)c3s2)nc1 [Compound 403, 3-(3-(3-fluoro-4-(2-(5-((2-methoxyethylamino)methyl)pyridin-2-yl)thieno[3,2-b]pyridin-7-yloxy)phenyl)ureido)benzenesulfonamide] cannot be ordered by inhibition in vivo at 30 nmol/eye: at least 60% for the first, at least 60% for the second.

COCCNCc1cccc(-c2cc3nccc(Oc4ccc(NC(=O)Nc5cccc(P(C)(C)=O)c5)cc4F)c3s2)n1 [Compound 387, 1-(3-(dimethylphosphoryl)phenyl)-3-(3-fluoro-4-(2-(6-((2-methoxyethylamino)methyl)pyridin-2-yl)thieno[3,2-b]pyridin-7-yloxy)phenyl)urea] and COCCOCCOCCNCc1ccc(-c2cc3nccc(Oc4ccc(NC(=O)Nc5cccc(P(C)(C)=O)c5)cc4F)c3s2)nc1 [Compound 390, 1-(4-(2-(5-5,8,11-trioxa-2-azadodecylpyridin-2-yl)thieno[3,2-b]pyridin-7-yloxy)-3-fluorophenyl)-3-(3-(dimethylphosphoryl)phenyl)urea] fall in the same range of inhibition in vivo at 30 nmol/eye: 40 to 60% for the first, 40 to 60% for the second.

COCCOCCNCc1ccc(-c2cc3nccc(Oc4ccc(NC(=O)Nc5cc(C)on5)cc4F)c3s2)nc1 [Compound 392, 1-(3-fluoro-4-(2-(5-((2-(2-methoxyethoxy)ethylamino)methyl)pyridin-2-yl)thieno[3,2-b]pyridin-7-yloxy)phenyl)-3-(5-methylisoxazol-3-yl)urea] and COCCNCc1ccc(-c2cc3nccc(Oc4ccc(NC(=O)Nc5nc(C)cs5)cc4F)c3s2)nc1 [Compound 397, 1-(3-fluoro-4-(2-(5-((2-methoxyethylamino)methyl)pyridin-2-yl)thieno[3,2-b]pyridin-7-yloxy)phenyl)-3-(4-methylthiazol-2-yl)urea] fall in the same range of inhibition in vivo at 30 nmol/eye: 40 to 60% for the first, 40 to 60% for the second.

COCCN(Cc1ccc(-c2cc3nccc(Oc4ccc(NC(=O)Nc5cccc(C(N)=O)c5)cc4F)c3s2)nc1)C(=O)OC [Compound 419, methyl (6-(7-(4-(3-(3-carbamoylphenyl)ureido)-2-fluorophenoxy)thieno[3,2-b]pyridin-2-yl)pyridin-3-yl)methyl(2-methoxyethyl)carbamate] gave an inhibition in vivo at 30 nmol/eye of 40 to 60%.

same assay, conditions: rat laser-induced CNV, 30 nmol/eye injection on Day 3, CNV area on Day 10 vs vehicle-treated group

In the case of COCCNCc1cnc(-c2cc3nccc(Oc4ccc(NC(=O)NC5CC5)cc4F)c3s2)n1C [Compound 348], the “Inhibition of CNV progression” value is reported as “B (≧40% to <60% inhibition)”.
